Consider eight compounds from patent publication US20230063457A1, “DNA-PK INHIBITING COMPOUNDS” (Provincial Health Services Authority, priority 2019, published 2023).

Each structure is given as a SMILES string.

One data set relates to HCT116 cells. The experiment in a line: Stirred cell suspension assay, release of parent inhibitor from prodrug (HCT116). As to conditions: hypoxic conditions; 1% HCT116 cells by volume in media with 10% FBS at 37° C., FIG. 2. Type of data set: cell-based, human. The protocol: Stirred Cell Suspension Assay
All compounds tested were dissolved in DMSO at 10 mM/L and further dilutions were made in culture medium. Final DMSO concentration was <0.3% (v/v). The human FaDu and HCT116 cells (ATCC) were cultured in MEM medium and 10% fetal calf serum (PAA). Cells were routinely maintained at densities of 0.2×10e6 cells per ml and incubated at 37° C. in a humidified 5% CO2, 95% air atmosphere. Cells were passaged twice a week, splitting back to obtain the low density. At the time of experiment, cells were trypsinized, counted and suspended at a density of 1% cells/volume in glass vials containing 2 ml stirred media and gassed at different pO2. After 30 minutes, test compounds were added at 25 μM/L and 150 μl samples were removed at intervals up to 4 hours. Each sample was split to test for (1) free drug and (2) total extraction and analysed using high performance liquid chromatography to measure the release of the parent inhibitor from the hypoxia activated prodrug.

Another data set concerns the target DNA-PK kinase (Homo sapiens, UniProt P78527). The experiment in a line: Inhibition of DNA-PK kinase activity (ADP-Glo). As to conditions: averaged values over all measurements on all batches; 150 μM ATP, 1 hour at 25° C. Type of data set: biochemical. An outline of the steps:
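Enzyme preincubated 15 min with compound in 50 mM Hepes pH 7.5, 20 mM MgCl2, 10 μg/ml calf thymus DNA, 1% DMSO; reaction started with 150 μM ATP and 0.2 μg/μl DNA-PK substrate, 1 h at 25° C. ADP-Glo luminescence, blank-subtracted; IC50 from sigmoidal fit of % inhibition versus log concentration.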
For orientation: ADP-Glo first removes unused ATP, then detects ADP through luciferase.

Data set [1] has as its target T1, Phospho-DNA-PK in FaDu Cells (Homo sapiens, UniProt P78527).
T1 construct: host or cells: FaDu
Briefly: Effect of compounds on phospho-DNA-PK in FaDu cells (MesoScale sandwich immunoassay). Type of data set: cell-based. As to conditions: 1 hour pre-incubation, 1 μg/ml Neocarzinostatin 2 hours, averaged values, read-out: MSD FaDu IC50. Here is the method:
Effect of Compounds on Phospho-DNA-PK in FaDu Cells
All compounds tested were dissolved in DMSO and further dilutions were made in culture medium. Final DMSO concentration was 0.3% (v/v). The human FaDu cells (ATCC) were cultured in MEM medium supplemented with Glutamax and 10% fetal calf serum (PAA). Cells were routinely maintained at densities of 0.2×10^6 cells per ml at 37° C. in a humidified 5% CO2, 95% air atmosphere. Cells were passaged twice a week, splitting back to obtain the low density. Cells were seeded in 96 well plates (Corning 3904) at 1×10^6 cells per ml media in a volume of 50 μl per well. Seeded cells were incubated at 37° C. in a humidified 5% CO2, 95% air atmosphere for 24 hours. Compounds were added (25 μl) to the cells and pre-incubated for 1 hour. 1 μg/ml DNA-damaging agent Neocarzinostatin (NCS) was added (25 μl) to a final volume of 100 μl and incubated for 2 hours at 37° C. in a humidified 5% CO2, 95% air atmosphere. After this period of time plates were removed from the incubator and the 100 μl dilutions were removed from the wells gently, prior to the addition of 75 μl cold RIPA lysis buffer with protease and phosphatase inhibitors to achieve the cells lysis, followed by shaking on a plate shaker at 4° C. for 30 minutes. At the end of this incubation, lysate was assessed for phospho-DNA-PK levels by sandwich immune-assay carried out in anti-mouse antibody coated MesoScale plates. […] Signal obtained in the wells containing blank samples was subtracted from all other wells and IC50 values were determined by fitting a sigmoidal curve to % inhibition of control versus Logo compound concentration.

For the compound `CC(C)n1ncc(COc2cnc3cc(N4CCOCC4)nc(O[C@H]4CC[C@@H](n5ccnc5)CC4)c3c2)c1[N+](=O)[O-]` [Prodrug 15], the “conversion of prodrug to the respective parent compound” value in the data set with HCT116 cells is “released the respective parent compound”.

Take `Oc1ccnc(NCC2CCN(c3nc(N4CCOCC4)cc4ncccc34)CC2)n1` [Example 113]: the IC50 against DNA-PK kinase came to 114 nM; in data set [1] it was 6600 nM.

With `c1cnc2cc(N3CCOCC3)nc(O[C@H]3CC[C@@H](n4ccnc4)CC3)c2c1` [Example 77], the IC50 against DNA-PK kinase worked out at 6 nM; in data set [1], 104 nM.

Take `NC(=O)[C@H]1CC[C@@H](COc2nc(N3CCOCC3)cc3ncccc23)CC1` [Example 6]: the half-maximal inhibitory concentration (IC50) against DNA-PK kinase was found to be 74 nM; in data set [1] it was 2010 nM.

Regarding `Cn1ncnc1[C@H]1CC[C@@H](Oc2nc(N3CCOCC3)cc3ncccc23)CC1` [Example 56], the IC50 against DNA-PK kinase came to 12 nM; in data set [1], 238 nM.

Consider `CCOC(=O)c1cnc(NCC2CCN(c3nc(N4CCOCC4)cc4ncccc34)CC2)nc1` [Example 112], for which the IC50 at DNA-PK kinase amounted to 112 nM; in data set [1] it was 2030 nM.

Consider `Fc1cnn([C@H]2CC[C@@H](Oc3nc(N4CCOCC4)cc4ncccc34)CC2)c1` [Example 78], for which the 50% inhibitory concentration (IC50) on DNA-PK kinase was 4 nM; in data set [1], 195 nM.

For the compound `c1cnc(N2CCC3(CCN(c4nc(N5CCOCC5)cc5ncccc45)C3)C2)nc1` (stereo not drawn) [Example 22], the IC50 on DNA-PK kinase was 198 nM; in data set [1], 1550 nM.

What is called IC50 is the concentration needed to halve the response being measured.
